Reference: PubChem BioAssay AID2008 (University of Pittsburgh Molecular Library Screening Center, 2009)
The source made the active and inactive calls. How the calls were made is not given here.

Tested on: Leishmania major promastigote growth inhibition
Assay: antileishmanial activity against L. major promastigotes – EC50, dose response (AID 2008)

Row | SMILES | EC50
1 | CCCc1nc2c(=O)n(C)c(=O)nc-2n(C)n1 | 214 nM
2 | Cc1cccc(-c2cc3c(N=O)c4ccccc4c-3n[nH]2)c1 | 1540 nM
3 | [O-][N+]1=c2ccc(Nc3ccccc3)cc2=NC12CCCCC2 | 840 nM
4 | CCN(CC)CCOC(c1ccccc1)c1ccc(C)cc1 (stereo not drawn) | 1100 nM
5 | COC(=O)c1ccc2c(c1)C(C)(C)C(/C=C/c1ccc(OC)c(OC)c1OC)=[N+]2C | 2.45 nM
6 | c1cnc2c(c1)ccc1cccnc12 | > 5000 nM (inactive)
7 | CCCCCCCCCCCCCCCCn1cc[n+](C)c1 | 35 nM
8 | Cc1ccc(NC(=O)N2CCCN(Cc3ccc(F)cc3)C2)cc1C | 2940 nM
9 | CC(C)CCN(C)C1CCN(S(=O)(=O)c2cccc(C(F)(F)F)c2)CC1 | 9.17 nM
10 | C[C@H]1C[C@@H](C)C(=O)[C@@H]([C@H](O)CC2CC(=O)NC(=O)C2)C1 | 1 nM
11 | Cn1c(=O)c2nc(-c3ccccc3)oc2c2ccccc21 | 1870 nM
12 | Cc1ccc2nc3cc([N+](=O)[O-])cc([N+](=O)[O-])c3cc2c1 | 288 nM
13 | CCN(CC)C(=S)SSC(=S)N(CC)CC | 263 nM
14 | Cc1c(Cl)sn(-c2ccc(Cl)cc2)c1=O | 545 nM
15 | c1ccc(C2CCC(N3CCC(N4CCCCC4)CC3)CC2)cc1 (stereo not drawn) | 2530 nM
16 | Cc1nc([N+](=O)[O-])nn1C12CC3CC(CC(Cl)(C3)C1)C2 | 856 nM
17 | CC(C)(C)c1ccc(-c2ncccc2O)cc1 | 299 nM
18 | O=C(Cn1cnc([N+](=O)[O-])c1)Nc1cc(Oc2ccc(Cl)cc2Cl)cc([N+](=O)[O-])c1 | 1510 nM
19 | O=C(c1ccccc1)c1c2c(cc3sc4ccccc4[n+]13)-c1cccc3cccc-2c13 | 504 nM
20 | CCOCCN1CCN(c2nnc3n2-c2ccc(Cl)cc2C(c2ccccc2Cl)=NC3)CC1 | 1170 nM
21 | O=C(NC1CCCC1)C(c1ccc(F)cc1)N(Cc1ccc(Cl)cc1)C(=O)CCl (stereo not drawn) | 1760 nM
22 | CCOC(=O)c1c(-c2ccc(F)cc2)csc1NC(=O)CCN1CCOCC1 | 176 nM
23 | CSc1ccc(CNC2CN3CCC2CC3)cc1 (stereo not drawn) | 1140 nM
24 | CCOC(=O)c1nnn(-c2nonc2-n2cccc2)c1CCl | 1860 nM

Row | SMILES | EC50
25 | Cc1ccc2c(c1)c(=O)c1c3n2CCN(C(=O)CCl)C3CC1 (stereo not drawn) | 1970 nM
26 | Cc1ccc(S(=O)(=O)c2ccc(Oc3cccc(C)c3)cc2)cc1 | 178 nM
27 | CN(CCN1CCc2ccccc2C1)Cc1nc(Cc2ccccc2F)no1 | 1400 nM
28 | CCN(CC)CCN(C)C1CCC(c2ccccc2)CC1 (stereo not drawn) | 823 nM
29 | O=C1CC(c2ccccc2Br)c2cc3c(cc2N1)CCC3 (stereo not drawn) | 253 nM
30 | O=[N+]([O-])c1cc([N+](=O)[O-])c2n[nH]c(-c3ccccc3)c2c1 | 402 nM
31 | Cc1nc2c(=O)n(C)c(=O)nc-2n(C)n1 | 201 nM
32 | Cc1ccc2c(c1)-c1cc(C)nn1C(c1ccc3c(c1)OCO3)N2 (stereo not drawn) | 1590 nM
33 | CCOC(=O)N=Nc1c2ccccc2c2nc3no[nH]c3nc12 | 784 nM
34 | CC12CCC(C(=O)N(CCCN3CCN(Cc4ccccc4)CC3)C1=O)C2(C)C (stereo not drawn) | 565 nM
35 | N=C(N)c1ccc(OCCCCCOc2ccc(C(=N)N)cc2)cc1 | 45.1 nM
36 | COc1cccc2c(=O)c(C/C=C(/C)Cl)c(C)[nH]c12 | 107 nM
37 | Clc1ccc2[nH]cc(-c3nnnn3-c3ccc4ccccc4c3)c2c1 | 1540 nM
38 | COc1ccc(C2=NCC(CSc3nnc(-c4ccc5c(c4)OCO5)o3)S2)cc1 (stereo not drawn) | 187 nM
39 | Cc1ccc2nc(Cl)c3nnnn3c2c1 | 765 nM
40 | COCCCN1CCN(c2nnc3n2-c2sc(Br)cc2C(c2ccccc2Cl)=NC3)CC1 | 595 nM
41 | CC[n+]1c(/C=C/N(C)c2ccccc2)sc2ccc(Cl)cc21 | 172 nM
42 | CCN(CC)c1ccc(NC(=O)CN2CCN(S(=O)(=O)c3cc(Cl)ccc3OC)CC2)cc1 | 3640 nM
43 | COC(=O)c1ccc(COc2ccc(C3C4=C(CCCC4=O)Nc4onc(C)c43)cc2)cc1 (stereo not drawn) | 1540 nM
44 | NCC12CC3CC(C1)CC(c1ccc(Cl)cc1)(C3)C2 | 354 nM
45 | COc1cc(-c2c(C#N)c(N)nc(SCc3ccncc3)c2C#N)cc(OC)c1OC | 1020 nM
46 | COc1cc(NC(C)CCCN)c2ncccc2c1Oc1ccccc1 (stereo not drawn) | < 10 nM
47 | COc1cc(CNCc2cccs2)ccc1OCc1ccccc1 | 162 nM
48 | COc1ccc2c3c(cccc13)NN=C2C | 255 nM

Row | SMILES | EC50
49 | CC(=O)O[C@@H]1C[C@H]2C(C)(C)C(=O)C=C[C@]2(C)[C@H]2CC[C@@]3(C)[C@H](c4ccoc4)OC(=O)[C@H]4O[C@]43[C@@]21C | 731 nM
50 | CC(C)(C)c1ccc(C(=O)C2CCCN(C3CCC3)C2)cc1 (stereo not drawn) | 10.7 nM
51 | O=Nc1c2cc(-c3ccccc3)[nH]nc-2c2ccccc12 | 2210 nM
52 | COC(=O)CNc1nc(-c2ccccc2F)nc2ccccc12 | 742 nM
53 | CCCOC(=O)CSC1=C(C#N)C(c2ccccc2Cl)CC(=O)N1 (stereo not drawn) | 122 nM
54 | N#Cc1cc(Oc2ccc3ccccc3c2)c(-n2nnc3ccccc32)cc1C#N | > 5000 nM (inactive)
55 | O=C1C2CCN(CC2)C1Cc1ccc(OCCOc2ccccc2)cc1 (stereo not drawn) | 272 nM
56 | CCC(/C=C1\Sc2ccc(OC)cc2N1CCO)=C\c1sc2ccc(OC)cc2[n+]1CCO | 487 nM
57 | CNc1ccccc1C(C)(C)c1cc(-c2cccc(Br)c2)no1 | 2780 nM
58 | Cc1ccc(OCCCCn2ccnc2)c(Cl)c1 | 131 nM
59 | COc1ccc(Cn2c(-c3ccc(OC)cc3)nc3ccccc32)cc1 | 1110 nM
60 | O=C(c1cccnc1)N(c1cc2sc(=O)oc2c2ccccc12)S(=O)(=O)c1ccccc1 | 191 nM
61 | O=C(c1ccc(-c2ccccc2)c(F)c1)C1CCCN(CCO)C1 (stereo not drawn) | 510 nM
62 | COCCCNCCCCOc1ccc(Br)cc1Cl | 1.73 nM
63 | O=C(/C=C/c1ccccc1)CC(O)(c1ccccc1)C(F)(F)F (stereo not drawn) | 1240 nM
64 | CC(C)(C)C1CCC2(CC1)Nc1cccc3cccc(c13)N2 | 1840 nM
65 | CN(C)c1cc(N/N=C/c2ccc(Cl)cc2)nc(N(C)C)n1 | 502 nM
66 | NC(C(=O)O)C1CC(Cl)=NO1 (stereo not drawn) | 177 nM
67 | CN(C)CCCN=c1cc(-c2ccccc2)oc2ccc(Cl)cc12 | 1640 nM
68 | Fc1cccc(-c2nnn3c2nc(Cl)c2ccccc23)c1 | 490 nM
69 | CC1(C)C(=O)C=C[C@]2(C)[C@H]3CC[C@@]4(C)[C@H](c5ccoc5)OC(=O)[C@H]5O[C@]54[C@]3(C)[C@H](O)C[C@@H]12 | 982 nM
70 | Cn1nc(-c2ccc(Cl)cc2)nc2c(=O)n(C)c(=O)nc1-2 | > 5000 nM (inactive)
71 | C[n+]1c(-c2ccccc2)cc(CCCCc2cc(-c3ccccc3)[n+](C)c(-c3ccccc3)c2)cc1-c1ccccc1 | 702 nM
72 | NC(=O)c1cn(C2OC(CO)C(O)C2O)c2ncnc(N)c12 (stereo not drawn) | 164 nM

Row | SMILES | EC50
73 | O=C(Nc1ccc(Cl)cn1)c1ccc([N+](=O)[O-])o1 | 205 nM
74 | COc1ccccc1-n1cnc2c(c1=O)c1nc3ccccc3nc1n2-c1ccc(C)c(C)c1 | 81.8 nM
75 | O=C(O)CCC(=O)Nc1ccc(N2CCCCCC2)cc1 | 1740 nM
76 | CN(C)CCOc1ccccc1Cc1ccccc1 | 498 nM
77 | Cc1nnc(Nc2ccccn2)c2ccccc12 | 722 nM
78 | C=CCc1ccc(OCCCCCN2CCOCC2)c(OC)c1 | 970 nM
79 | CCCCS(=O)(=O)/C=C\C=C/S(=O)(=O)CCCC | 1520 nM
80 | O=C(CCl)Nc1cccc(-c2cnc3ccccc3n2)c1 | 1110 nM
81 | Cc1ccc(-c2cc3cccc[n+]3cc2-c2ccc(C)cc2)cc1 | 228 nM
82 | COc1ccc(-[n+]2c(C)cc(/C=C3\Sc4ccccc4N3C)cc2C)cc1 | < 10 nM
83 | COc1ccc(C(=O)C(CN2CCOCC2)c2ccccc2)cc1F (stereo not drawn) | 2040 nM
84 | O=[N+]([O-])c1cc(-c2nnc(C34CC5CC(CC(C5)C3)C4)o2)cc([N+](=O)[O-])c1 | 115 nM
85 | N#CC(c1cccc(Cl)c1)c1ccc2c(C(F)(F)F)cc(C(F)(F)F)nc2n1 (stereo not drawn) | 1180 nM
86 | c1ccc(CNc2nc(-c3cccs3)nc3ccccc23)cc1 | 2140 nM
87 | CCn1nc(/C=C/c2ccccc2)nc2c(=O)n(C)c(=O)nc1-2 | > 5000 nM (inactive)
88 | Nc1nn(-c2ccccc2)c(N)c1N=Nc1ccc2c(c1)OCO2 | 846 nM
89 | CCCCCCCCC[n+]1cccc2c3ccccc3ccc21 | 2.45 nM
90 | COc1ccc(/C=C/c2cc[n+](C(=O)Cc3ccccc3)cc2)cc1 | 49.6 nM
91 | Cc1ccccc1-n1ncc2c([N+](=O)[O-])cc([N+](=O)[O-])cc21 | 60.9 nM
92 | COC(=O)c1ccc(-c2ccc(CNCC(O)c3ccccc3)o2)cc1 (stereo not drawn) | 102 nM
93 | CCC(C)(c1nnnn1-c1c(C)cccc1C)N(N=O)c1ccccc1Cl (stereo not drawn) | 324 nM
94 | COC(=O)[C@@H]1[C@@H](C(=O)OC)C2(c3ccccc3-c3ccccc32)N(c2ccc(Cl)cc2)N1C#N | > 5000 nM (inactive)
95 | O=C1C(=O)c2c(C(=O)c3ccccc3)coc2-c2ccccc21 | 1250 nM
96 | N=c1c2c(n(Cc3ccccc3)c3c1CCC3)CCC2 | 83.4 nM

Row | SMILES | EC50
97 | CCCCCCCCCCCCCCCC[n+]1cccc(C(=O)N(CC)CC)c1 | 625 nM
98 | C=CCn1cccc(/C=C/C(=O)c2ccc(C(C)(C)C)cc2)c1=S | 1790 nM
99 | Cc1cc(C)nc(/N=c2/ssnc2Cl)c1 | 353 nM
100 | Nc1nsc2ccccc12 | 391 nM
101 | c1ccc(-c2cc(-c3nnc4sc(-c5ccccn5)nn34)[nH]n2)cc1 | 4090 nM
102 | Cn1cc(CN2CCC(CO)CC2)c(-c2ccc(Oc3ccccc3)cc2)n1 | 164 nM
103 | COc1ccc(NC(=O)/C(Cl)=C(/Cl)S(=O)Cc2ccccc2Cl)cn1 (stereo not drawn) | 241 nM
104 | Cc1nn(-c2nc3ccccc3[nH]2)c(N)c1-c1ccc(Cl)cc1 | 1540 nM
105 | CN(C)C(=S)SSC(=S)N(C)C | 97.1 nM
106 | Cc1nn(-c2ccccn2)c2c1C(=O)C(Br)CC2 (stereo not drawn) | 967 nM
107 | COc1ccc2cc3[n+](cc2c1OC)CCc1cc2c(cc1-3)OCO2 | 375 nM
108 | c1ccc2c(c1)OC(CCCN1CCCCC1)c1ccccc1S2 (stereo not drawn) | 134 nM
109 | Cc1[nH]c2c(Cl)cccc2c(=O)c1CN1CCCC1 | 390 nM
110 | O=C1c2ccccc2C(=O)C12Cc1ccccc1N1CCN(c3ccccc3)CC12 (stereo not drawn) | 1910 nM
111 | Cc1ccccc1NC1=C/C(=N\S(=O)(=O)c2cccs2)c2ccccc2C1=O | 208 nM
112 | CC(C)(C)c1ccc(-n2nc(C#N)c(Cl)cc2=O)cc1 | 759 nM
113 | Cc1cc(/C=C2\Sc3ccccc3N2C)cc(C)[n+]1CC1CCCO1 (stereo not drawn) | 1 nM
114 | CCc1ccc(NSc2ccccc2[N+](=O)[O-])cc1 | 748 nM
115 | COc1ccc(S(=O)(=O)Nc2ccc(O)c3ccccc23)cc1 | 268 nM
116 | Cc1cc(C)c2c(c1)-c1cc(C)nn1C(c1ccc3c(c1)OCO3)N2 (stereo not drawn) | 1320 nM
117 | O=C1C2ON(c3ccc(Br)cc3)C(c3cccnc3)C2C(=O)N1C1CCCCC1 (stereo not drawn) | 513 nM
118 | Nc1cccc2nc3ccccc3cc12 | 635 nM
